The source of these data is patent US6352713B1, “Nutritional composition” (Drugtech Corporation, priority 1999, dated 2002).

The nature of data set [1]: pH of the solution/suspension of a composition in deionized water. The note with it: ascorbic acid/calcium carbonate mixtures; amount equivalent to 50 mg ascorbic acid in 25 ml deionized water, stirred ten minutes. Type of data set: physicochemical.
Procedure: As discussed herein, the pH of the present composition is measured by any suitable means well known to persons of ordinary skill in the art. […] Another non-limiting exemplary technique for measuring the pH of a dosage form is to use a glass mortar and pestle to grind one tablet until a finely divided uniform powder is obtained. The finely divided uniform powder is then added to an appropriate vessel and the pH is then determined as in manner of the preceding example.
To the beaker was added 25 ml of deionized water. The contents of the beaker were then vigorously stirred for ten minutes. The pH of the resultant solution/suspension was then measured.
To the beaker was added 25 ml of deionized water. The contents were then vigorously stirred for ten minutes. The pH of the resultant solution/suspension was then measured.
In comparison, a conventional chewable prenatal supplement containing 1000 IU of vitamin A, 400 IU of vitamin D3, 11 IU of vitamin E, 120 mg of vitamin C, 1 mg of folic acid, 2 mg of vitamin B1, 3 mg of riboflavin, 20 mg of niacin, 10 mg of vitamin B6, 12 mcg of vitamin B12 and 29 mg of iron was obtained. […] To the beaker was added 25 ml of deionized water. The contents were then vigorously stirred for ten minutes or until dissolved. The pH of the resultant solution/suspension was then measured.
The conditions of data set [2]: cited from earlier work.

As to `O=C1O[C@H]([C@@H](O)CO)C(O)=C1O` [Ascorbic Acid], in data set [1], the “pH Value” turned out to be 3.32. Consider `Nc1nc2ncc(CNc3ccc(C(=O)N[C@@H](CCC(=O)O)C(=O)O)cc3)nc2c(=O)[nH]1` [Folic acid, pteroylglutamic acid], for which the “share of dietary folic acid available to the body (bioavailability)” value in data set [2] was “about half”.
